Reference: patent US8202856B2 (Merck Serono SA, priority 2007, dated 2012)
pEC50: −log10 of the molar value.

The compounds below were run against S1P1 receptor (Homo sapiens, UniProt P21453) (assay: 35S-GTPγS binding, membranes from CHO cells expressing S1P1). Conditions: CHO cell membranes expressing S1P1.
Format: biochemical
Experimental: Receptor binding assay: Membranes were prepared from CHO cells expressing S1P1 or S1P3 for use in ligand and 35S-GTPTS binding studies. Cells were suspended in 50 mM TRIS, pH 7.4, 2 mM EDTA, 250 mM Sucrose (buffer A) and 1× Complete protease inhibitor cocktail (Roche), and disrupted at 4° C. by nitrogen decompression using a cell disruption bomb (Parr Instrument). Following centrifugation at 1000 RPM for 10 min at 4° C., the supernatant was suspended in buffer A and centrifuged again at 19000 RPM for 60 min at 4° C. The pellet was then suspended in 10 mM HEPES, pH 7.4, 1 mM EDTA, 250 mM Sucrose (Buffer B), and 1× Complete EDTA-free protease inhibitor cocktail and homogenized using a potter. Membranes were flash frozen in liquid nitrogen and stored at −80° C. [33P]sphingosine 1-phosphate (3000 Ci/mmol; American Radiolabeled Chemicals, Inc.) was added to test compounds in DMSO. Membranes and WGA SPA beads (GE Healthcare) were added to give a final volume of 100 μl in 96-well plates with assay concentrations of […] [33P]sphingosine 1-phosphate (respectively for S1P1 or S1P3), 50 mM HEPES, pH 7.5, 5 mM MgCl2, 100 mM NaCl, 0.4% fatty acid-free BSA, 1-5 μg/well of proteins and 100 μg/well of WGA SPA beads. Binding was performed for 60 min at room temperature on a shaker and bound radioactivity was measured on a PerkinElmer 1450 MicroBeta counter. Specific binding was calculated by subtracting remaining radioactivity in the presence of 1000-fold excess of unlabeled S1P. Binding data were analyzed using the GraphPad Prism program.
Measurements of ^35S-GTPγS Binding: Membranes (1 to 10 μg protein) prepared as described above, were incubated in 96-well Scintiplates (PerkinElmer) with test compounds diluted in DMSO, in 180 μl of 20 mM HEPES, pH 7.4, 10 mM MgCl2, 2 μg/well Saponin, 0.2% fatty acid free BSA (Assay buffer), 140 mM NaCl and 1.7 μM GDP. The assay was initiated with the addition of 20 μl of 1.5 nM [35S]-GTPγS (1100 Ci/mmol; GE Healthcare) in assay buffer. After 60 min incubation at 30° C. on a shaker, plates were centrifuged for 10 min at 2000 RPM. Supernatant was discarded and membrane bound radioactivity was measured on a PerkinElmer 1450 MicroBeta counter. Triplicate samples were averaged and expressed as response relative to S1P activation in absence of compound (n=2).

S1P1 receptor, sequence (P21453 whole entry): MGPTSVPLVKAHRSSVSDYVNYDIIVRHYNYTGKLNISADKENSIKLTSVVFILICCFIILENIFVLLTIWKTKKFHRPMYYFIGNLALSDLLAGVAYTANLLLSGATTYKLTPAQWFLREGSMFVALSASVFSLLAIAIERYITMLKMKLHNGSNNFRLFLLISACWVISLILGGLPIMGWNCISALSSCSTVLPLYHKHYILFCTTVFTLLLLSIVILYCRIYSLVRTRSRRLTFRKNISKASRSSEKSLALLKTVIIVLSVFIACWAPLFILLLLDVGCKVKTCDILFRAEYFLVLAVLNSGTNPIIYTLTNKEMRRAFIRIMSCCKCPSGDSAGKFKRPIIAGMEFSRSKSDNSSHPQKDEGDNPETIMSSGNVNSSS

| SMILES | pEC50 |
| --- | --- |
| Cc1c(-c2nc(-c3cc(F)ccc3F)no2)nnn1-c1ccccc1F [Example 2, 3-[2,5-Difluorophenyl)-5-[1-(2-fluorophenyl)-5-methyl-1H-1,2,3-triazole-4-yl]-1,2,4-oxadiazole] | 5.95 |
| Cc1c(-c2nc(-c3cc(F)ccc3F)no2)nnn1-c1ccccc1Br [Example 3, 5-[1-(2-Bromophenyl)-5-methyl-1H-1,2,3-triazole-4-yl]-3-(2,5-difluorophenyl)-1,2,4-oxadiazole] | 5.57 |
| O=C(O)c1ccc(-c2noc(-c3nnn(-c4ccccc4F)c3-c3ccccc3)n2)cc1F [Example 23, 2-Fluoro-4-{5-[1-(2-fluorophenyl)-5-phenyl-1H-1,2,3-triazole-4-yl]-1,2,4-oxadiazole-3-yl}benzoic acid] | 6.19 |
| O=C(O)c1ccc(-c2noc(-c3nnn(-c4ccccc4F)c3-c3ccccc3)n2)cc1 [Example 24, 4-{5-[1-(2-Fluorophenyl)-5-phenyl-1H-1,2,3-triazole-4-yl]-1,2,4-oxadiazole-3-yl}benzoic acid] | 5.74 |
| COc1cc(CCC(=O)O)ccc1-c1noc(-c2nnn(-c3ccccc3F)c2-c2ccccc2)n1 [Example 29, 3-(4-{5-[1-(2-Fluorophenyl)-5-phenyl-1H-1,2,3-triazole-4-yl]-1,2,4-oxadiazole-3-yl}-3-methoxyphenyl)propanoic acid] | 5.90 |
| Cc1cc(CCC(=O)O)ccc1-c1noc(-c2nnn(-c3ccccc3F)c2-c2ccccc2)n1 [Example 30, 3-(4-{5-[1-(2-Fluorophenyl)-5-phenyl-1H-1,2,3-triazole-4-yl]-1,2,4-oxadiazole-3-yl}-3-methylphenyl)propanoic acid] | 6.15 |
| Fc1ccccc1-n1nnc(-c2nc(-c3ccccn3)no2)c1-c1ccncc1 [Example 45, 2-{5-[1-(2-fluorophenyl)-5-pyridin-4-yl-1H-1,2,3-triazol-4-yl]-1,2,4-oxadiazol-3-yl}pyridine] | 5.66 |
| Fc1ccccc1-n1nnc(-c2nc(-c3cccnc3)no2)c1C1CCCO1 (centres unmarked) [Example 54] | 6.02 |
| CC(=O)N1CCC(c2noc(-c3nnn(-c4ccccc4F)c3-c3ccncc3)n2)CC1 [Example 55, 4-[4-[3-(1-acetylpiperidin-4-yl)-1,2,4-oxadiazol-5-yl]-1-(2-fluorophenyl)-1H-1,2,3-triazol-5-yl]pyridine] | 5.85 |
| Fc1ccccc1-n1nnc(-c2nc(-c3ccncc3)no2)c1C1CCCO1 (centres unmarked) [Example 56, 4-{5-[1-(2-fluorophenyl)-5-(tetrahydrofuran-2-yl)-1H-1,2,3-triazol-4-yl]-1,2,4-oxadiazol-3-yl}pyridine] | 5.73 |
| COc1ccc(-c2noc(-c3nnn(-c4ccccc4F)c3-c3ccccn3)n2)cc1 [Example 57, 2-{1-(2-fluorophenyl)-4-[3-(4-methoxyphenyl)-1,2,4-oxadiazol-5-yl]-1H-1,2,3-triazol-5-yl}pyridine] | 6.02 |
| Fc1ccccc1-c1noc(-c2nnn(-c3ccccc3F)c2Cc2ccccc2)n1 [Example 58, 5-[5-benzyl-1-(2-fluorophenyl)-1H-1,2,3-triazol-4-yl]-3-(2-fluorophenyl)-1,2,4-oxadiazole] | 5.94 |
| Fc1ccccc1-n1nnc(-c2nc(-c3cccc(CN4CCOCC4)c3)no2)c1-c1ccncc1 [Example 60, 4-(3-{5-[1-(2-fluorophenyl)-5-pyridin-4-yl-1H-1,2,3-triazol-4-yl]-1,2,4-oxadiazol-3-yl}benzyl)morpholine] | 6.21 |
| COc1ccccc1-c1noc(-c2nnn(-c3ccccc3F)c2-c2ccccn2)n1 [Example 67, 2-{1-(2-fluorophenyl)-4-[3-(2-methoxyphenyl)-1,2,4-oxadiazol-5-yl]-1H-1,2,3-triazol-5-yl}pyridine] | 6.06 |
| Fc1ccccc1-n1nnc(-c2nc(-c3ccncc3)no2)c1C1CCCC1 [Example 72, 4-{5-[5-cyclopentyl-1-(2-fluorophenyl)-1H-1,2,3-triazol-4-yl]-1,2,4-oxadiazol-3-yl}pyridine] | 6.01 |
| CC(C)(C)OC(=O)NCc1ccc(-c2noc(-c3nnn(-c4ccccc4F)c3-c3ccncc3)n2)cc1 [Example 74, tert-butyl (4-{5-[1-(2-fluorophenyl)-5-pyridin-4-yl-1H-1,2,3-triazol-4-yl]-1,2,4-oxadiazol-3-yl}benzyl)carbamate] | 5.96 |
| Fc1ccccc1-n1nnc(-c2nc(-c3cccnc3)no2)c1Cc1ccccc1 [Example 75, 3-{5-[5-benzyl-1-(2-fluorophenyl)-1H-1,2,3-triazol-4-yl]-1,2,4-oxadiazol-3-yl}pyridine] | 6.18 |

The next compounds have a higher pEC50 than those just listed; values first:

| pEC50 | SMILES |
| --- | --- |
| 6.23 | COCc1c(-c2nc(-c3ccc(S(N)(=O)=O)cc3)no2)nnn1-c1ccccc1F [Example 76, 4-{5-[1-(2-fluorophenyl)-5-(methoxymethyl)-1H-1,2,3-triazol-4-yl]-1,2,4-oxadiazol-3-yl}benzenesulfonamide] |
| 6.35 | COCc1c(-c2nc(-c3ccccc3OC)no2)nnn1-c1ccccc1F [Example 50, 5-[1-(2-fluorophenyl)-5-(methoxymethyl)-1H-1,2,3-triazol-4-yl]-3-(2-methoxyphenyl)-1,2,4-oxadiazole] |
| 6.40 | Fc1ccccc1-c1noc(-c2nnn(-c3ccccc3F)c2C2CCCC2)n1 [Example 78, 5-[5-cyclopentyl-1-(2-fluorophenyl)-1H-1,2,3-triazol-4-yl]-3-(2-fluorophenyl)-1,2,4-oxadiazole] |
| 6.51 | CC(C)c1c(-c2nc(-c3cc(F)ccc3F)no2)nnn1-c1ccccc1F [Example 63, 3-(2,5-difluorophenyl)-5-[1-(2-fluorophenyl)-5-isopropyl-1H-1,2,3-triazol-4-yl]-1,2,4-oxadiazole] |
| 6.55 | COc1cccc(-c2noc(-c3nnn(-c4ccccc4F)c3-c3ccccn3)n2)c1 [Example 70, 2-{1-(2-fluorophenyl)-4-[3-(3-methoxyphenyl)-1,2,4-oxadiazol-5-yl]-1H-1,2,3-triazol-5-yl}pyridine] |
| 6.63 | COCc1c(-c2nc(-c3ccc(CN)cc3)no2)nnn1-c1ccccc1F [Example 81, 1-(4-{5-[1-(2-fluorophenyl)-5-(methoxymethyl)-1H-1,2,3-triazol-4-yl]-1,2,4-oxadiazol-3-yl}phenyl)methanamine] |
| 6.64 | Fc1ccccc1-n1nnc(-c2nc(-c3cccnc3)no2)c1C1CCCC1 [Example 79, 3-{5-[5-cyclopentyl-1-(2-fluorophenyl)-1H-1,2,3-triazol-4-yl]-1,2,4-oxadiazol-3-yl}pyridine] |
| 6.68 | Fc1ccccc1-c1noc(-c2nnn(-c3ccccc3F)c2C2CCCO2)n1 (centres unmarked) [Example 53, 3-(2-fluorophenyl)-5-[1-(2-fluorophenyl)-5-(tetrahydrofuran-2-yl)-1H-1,2,3-triazol-4-yl]-1,2,4-oxadiazole] |
| 6.75 | Fc1ccc(F)c(-c2noc(-c3nnn(-c4ccccc4F)c3C3CCCO3)n2)c1 (centres unmarked) [Example 71, 3-(2,5-difluorophenyl)-5-[1-(2-fluorophenyl)-5-(tetrahydrofuran-2-yl)-1H-1,2,3-triazol-4-yl]-1,2,4-oxadiazole] |
| 7.28 | COCCc1c(-c2nc(-c3cc(F)ccc3F)no2)nnn1-c1ccccc1F [Example 44, 3-(2,5-difluorophenyl)-5-[1-(2-fluorophenyl)-5-(2-methoxyethyl)-1H-1,2,3-triazol-4-yl]-1,2,4-oxadiazole] |
| 7.31 | NC(=O)c1ccc(-c2noc(-c3nnn(-c4ccccc4F)c3-c3ccncc3)n2)cc1 [Example 73, 4-{5-[1-(2-fluorophenyl)-5-pyridin-4-yl-1H-1,2,3-triazol-4-yl]-1,2,4-oxadiazol-3-yl}benzamide] |
| 7.38 | Fc1ccccc1-n1nnc(-c2nc(-c3cccnc3)no2)c1-c1ccncc1 [Example 42, 3-{5-[1-(2-fluorophenyl)-5-pyridin-4-yl-1H-1,2,3-triazol-4-yl]-1,2,4-oxadiazol-3-yl}pyridine] |
| 7.59 | Fc1ccccc1-n1nnc(-c2nc(-c3ccncc3)no2)c1-c1ccccn1 [Example 66, 2-[1-(2-fluorophenyl)-4-(3-pyridin-4-yl-1,2,4-oxadiazol-5-yl)-1H-1,2,3-triazol-5-yl]pyridine] |
| 7.72 | Fc1ccccc1-n1nnc(-c2nc(-c3ccc4[nH]ccc4c3)no2)c1-c1ccncc1 [Example 43, 5-{5-[1-(2-fluorophenyl)-5-pyridin-4-yl-1H-1,2,3-triazol-4-yl]-1,2,4-oxadiazol-3-yl}-1H-indole] |
| 8.10 | Oc1ccc(-c2noc(-c3nnn(-c4ccccc4F)c3-c3ccncc3)n2)cc1 [Example 64, 4-{5-[1-(2-fluorophenyl)-5-pyridin-4-yl-1H-1,2,3-triazol-4-yl]-1,2,4-oxadiazol-3-yl}phenol] |
